Key:
Assay in all cases: Test B pre-/postemergence
Format in all cases: in vivo
Parameters in all cases: key: 0 is no effect; 10 is complete control
wild oat (Avena fatua) = tested on: wild oat (Avena fatua)
Excerpt: (§1) Seeds of bedstraw (Galium aparine), blackgrass (Alopecurus myosuroides), broadleaf signalgrass (Brachiaria decumbens), cocklebur (Xanthium strumarium), corn (Zea mays), crabgrass (Digitaria sanguinalis), giant foxtail (Setaria faberii), lambsquarters (Chenopodium album), momingglory (Ipomoea hederacea), pigweed (Amaranthus retroflexus), rape (Brassica napus), soybean (Glycine max), sugar beet (Beta vulgaris), velvetleaf (Abutilon theophrasti), wheat (Triticum aestivum), wild oat (Avena fatua) and purple nutsedge (Cyperus rotundus) tubers were planted and treated preemergence with test chemicals formulated in a non-phytotoxic solvent mixture which included a surfactant.
(§2) At the same time, these crop and weed species were also treated with postemergence applications of test chemicals formulated in the same manner. Plants ranged in height from 2 to 18 cm (1- to 4-leaf stage) for postemergence treatments. Plant species in the flood test consisted of rice (Oryza sativa), smallflower flatsedge (Cyperus difformis), duck salad (Heteranthera limosa) and bamyardgrass (Echinochloa crus-galli) grown to the 2-leaf stage for testing. Treated plants and controls were maintained in a greenhouse for twelve to sixteen days, after which all species were compared to controls and visually evaluated. Plant response ratings, summarized in Table B, are based on a scale of 0 to 10 where 0 is no effect and 10 is complete control. A dash (−) response means no test result.

[1] = tested on: sugar beet (Beta vulgaris)
Excerpt: as §1, §2

corn (Zea mays) = tested on: corn (Zea mays)
Excerpt: as §1, §2

[2] = tested on: cocklebur (Xanthium strumarium)
Excerpt: as §1, §2

[3] = tested on: giant foxtail (Setaria faberii)
Excerpt: as §1, §2

[4] = tested on: momingglory (Ipomoea hederacea)
Excerpt: as §1, §2

[5] = tested on: blackgrass (Alopecurus myosuroides)
Excerpt: as §1, §2

[6] = tested on: velvetleaf (Abutilon theophrasti)
Excerpt: as §1, §2

[7] = tested on: broadleaf signalgrass (Brachiaria decumbens)
Excerpt: as §1, §2

rape (Brassica napus) = tested on: rape (Brassica napus)
Excerpt: as §1, §2

[8] = tested on: pigweed (Amaranthus retroflexus)
Excerpt: as §1, §2

soybean (Glycine max) = tested on: soybean (Glycine max)
Excerpt: as §1, §2

[9] = tested on: bedstraw (Galium aparine)
Excerpt: as §1, §2

[10] = tested on: wheat (Triticum aestivum)
Excerpt: as §1, §2

[11] = tested on: crabgrass (Digitaria sanguinalis)
Excerpt: as §1, §2

[12] = tested on: purple nutsedge (Cyperus rotundus)
Excerpt: as §1, §2

Cc1cnc(-c2ccc(C(F)(F)F)cc2)nc1Cn1cnc(C(F)(F)F)n1 [Compound 11]
Plant response rating, Wild oats (wild oat (Avena fatua); Rate 62 g/ha, Postemergence): 2 | Wild oats plant response rating (wild oat (Avena fatua); Rate 62 g/ha, Preemergence): 2 | Plant response rating, Wild oats (wild oat (Avena fatua); Rate 125 g/ha, Postemergence): 3 | Wild oats plant response rating (wild oat (Avena fatua); Rate 125 g/ha, Preemergence): 4 | Plant response rating, Wild oats (wild oat (Avena fatua); Rate 250 g/ha, Postemergence): 3 | Plant response rating, Wild oats (wild oat (Avena fatua); Rate 250 g/ha, Preemergence): 4 | Plant response rating, Wild oats (wild oat (Avena fatua); Rate 500 g/ha, Postemergence): 5 | Plant response rating, Wild oats (wild oat (Avena fatua); Rate 500 g/ha, Preemergence): 6 | Plant response rating, Sugarbeets ([1]; Rate 62 g/ha, Postemergence): 9 | Sugarbeets plant response rating ([1]; Rate 62 g/ha, Preemergence): 10 | Plant response rating, Sugarbeets ([1]; Rate 125 g/ha, Postemergence): 10 | Sugarbeets plant response rating ([1]; Rate 125 g/ha, Preemergence): 10 | Plant response rating, Sugarbeets ([1]; Rate 250 g/ha, Postemergence): 10 | Plant response rating, Sugarbeets ([1]; Rate 250 g/ha, Preemergence): 10 | Plant response rating, Sugarbeets ([1]; Rate 500 g/ha, Postemergence): 10 | Plant response rating, Sugarbeets ([1]; Rate 500 g/ha, Preemergence): 10 | Plant response rating, Corn (corn (Zea mays); Rate 62 g/ha, Postemergence): 3 | Corn plant response rating (corn (Zea mays); Rate 62 g/ha, Preemergence): 0 | Plant response rating, Corn (corn (Zea mays); Rate 125 g/ha, Postemergence): 3 | Corn plant response rating (corn (Zea mays); Rate 125 g/ha, Preemergence): 0 | Plant response rating, Corn (corn (Zea mays); Rate 250 g/ha, Postemergence): 3 | Plant response rating, Corn (corn (Zea mays); Rate 250 g/ha, Preemergence): 0 | Plant response rating, Corn (corn (Zea mays); Rate 500 g/ha, Postemergence): 3 | Plant response rating, Corn (corn (Zea mays); Rate 500 g/ha, Preemergence): 0 | Plant response rating, Cocklebur ([2]; Rate 62 g/ha, Postemergence): 7 | Cocklebur plant response rating ([2]; Rate 62 g/ha, Preemergence): 0 | Plant response rating, Cocklebur ([2]; Rate 125 g/ha, Postemergence): 8 | Plant response rating, Cocklebur ([2]; Rate 250 g/ha, Postemergence): 9 | Plant response rating, Cocklebur ([2]; Rate 250 g/ha, Preemergence): 3 | Plant response rating, Cocklebur ([2]; Rate 500 g/ha, Postemergence): 9 | Plant response rating, Giant foxtail ([3]; Rate 62 g/ha, Postemergence): 2 | Giant foxtail plant response rating ([3]; Rate 62 g/ha, Preemergence): 6 | Plant response rating, Giant foxtail ([3]; Rate 125 g/ha, Postemergence): 4 | Giant foxtail plant response rating ([3]; Rate 125 g/ha, Preemergence): 9 | Plant response rating, Giant foxtail ([3]; Rate 250 g/ha, Postemergence): 5 | Plant response rating, Giant foxtail ([3]; Rate 250 g/ha, Preemergence): 9 | Plant response rating, Giant foxtail ([3]; Rate 500 g/ha, Postemergence): 9 | Plant response rating, Giant foxtail ([3]; Rate 500 g/ha, Preemergence): 10 | Plant response rating, Morningglory ([4]; Rate 62 g/ha, Postemergence): 7 | Morningglory plant response rating ([4]; Rate 62 g/ha, Preemergence): 3 | Plant response rating, Morningglory ([4]; Rate 125 g/ha, Postemergence): 10 | Morningglory plant response rating ([4]; Rate 125 g/ha, Preemergence): 8 | Plant response rating, Morningglory ([4]; Rate 250 g/ha, Postemergence): 10 | Plant response rating, Morningglory ([4]; Rate 250 g/ha, Preemergence): 9 | Plant response rating, Morningglory ([4]; Rate 500 g/ha, Preemergence): 10 | Plant response rating, Blackgrass ([5]; Rate 62 g/ha, Postemergence): 2 | Blackgrass plant response rating ([5]; Rate 62 g/ha, Preemergence): 3 | Plant response rating, Blackgrass ([5]; Rate 125 g/ha, Postemergence): 3 | Blackgrass plant response rating ([5]; Rate 125 g/ha, Preemergence): 3 | Plant response rating, Blackgrass ([5]; Rate 250 g/ha, Postemergence): 7 | Plant response rating, Blackgrass ([5]; Rate 250 g/ha, Preemergence): 5 | Plant response rating, Blackgrass ([5]; Rate 500 g/ha, Postemergence): 5 | Plant response rating, Blackgrass ([5]; Rate 500 g/ha, Preemergence): 5 | Plant response rating, Velvetleaf ([6]; Rate 62 g/ha, Postemergence): 8 | Velvetleaf plant response rating ([6]; Rate 62 g/ha, Preemergence): 3 | Plant response rating, Velvetleaf ([6]; Rate 125 g/ha, Postemergence): 8 | Velvetleaf plant response rating ([6]; Rate 125 g/ha, Preemergence): 6 | Plant response rating, Velvetleaf ([6]; Rate 250 g/ha, Postemergence): 8 | Plant response rating, Velvetleaf ([6]; Rate 250 g/ha, Preemergence): 8 | Plant response rating, Velvetleaf ([6]; Rate 500 g/ha, Postemergence): 9 | Plant response rating, Velvetleaf ([6]; Rate 500 g/ha, Preemergence): 10 | Plant response rating, B. signalgrass ([7]; Rate 62 g/ha, Postemergence): 3 | B. signalgrass plant response rating ([7]; Rate 62 g/ha, Preemergence): 2 | Plant response rating, B. signalgrass ([7]; Rate 125 g/ha, Postemergence): 3 | B. signalgrass plant response rating ([7]; Rate 125 g/ha, Preemergence): 3 | Plant response rating, B. signalgrass ([7]; Rate 250 g/ha, Postemergence): 4 | Plant response rating, B. signalgrass ([7]; Rate 250 g/ha, Preemergence): 8 | Plant response rating, B. signalgrass ([7]; Rate 500 g/ha, Postemergence): 7 | Plant response rating, B. signalgrass ([7]; Rate 500 g/ha, Preemergence): 8 | Plant response rating, Rape (rape (Brassica napus); Rate 62 g/ha, Postemergence): 9 | Rape plant response rating (rape (Brassica napus); Rate 62 g/ha, Preemergence): 9 | Plant response rating, Rape (rape (Brassica napus); Rate 125 g/ha, Postemergence): 9 | Rape plant response rating (rape (Brassica napus); Rate 125 g/ha, Preemergence): 9 | Plant response rating, Rape (rape (Brassica napus); Rate 250 g/ha, Postemergence): 10 | Plant response rating, Rape (rape (Brassica napus); Rate 250 g/ha, Preemergence): 10 | Plant response rating, Rape (rape (Brassica napus); Rate 500 g/ha, Postemergence): 10 | Plant response rating, Rape (rape (Brassica napus); Rate 500 g/ha, Preemergence): 10 | Plant response rating, Redroot pigweed ([8]; Rate 62 g/ha, Postemergence): 9 | Redroot pigweed plant response rating ([8]; Rate 62 g/ha, Preemergence): 9 | Plant response rating, Redroot pigweed ([8]; Rate 125 g/ha, Postemergence): 10 | Redroot pigweed plant response rating ([8]; Rate 125 g/ha, Preemergence): 9 | Plant response rating, Redroot pigweed ([8]; Rate 250 g/ha, Postemergence): 10 | Plant response rating, Redroot pigweed ([8]; Rate 250 g/ha, Preemergence): 10 | Plant response rating, Redroot pigweed ([8]; Rate 500 g/ha, Postemergence): 10 | Plant response rating, Redroot pigweed ([8]; Rate 500 g/ha, Preemergence): 10 | Plant response rating, Soybean (soybean (Glycine max); Rate 62 g/ha, Postemergence): 5 | Soybean plant response rating (soybean (Glycine max); Rate 62 g/ha, Preemergence): 1 | Plant response rating, Soybean (soybean (Glycine max); Rate 125 g/ha, Postemergence): 7 | Soybean plant response rating (soybean (Glycine max); Rate 125 g/ha, Preemergence): 1 | Plant response rating, Soybean (soybean (Glycine max); Rate 250 g/ha, Postemergence): 8 | Plant response rating, Soybean (soybean (Glycine max); Rate 250 g/ha, Preemergence): 1 | Plant response rating, Soybean (soybean (Glycine max); Rate 500 g/ha, Postemergence): 9 | Plant response rating, Soybean (soybean (Glycine max); Rate 500 g/ha, Preemergence): 2 | Plant response rating, Bedstraw ([9]; Rate 62 g/ha, Postemergence): 8 | Bedstraw plant response rating ([9]; Rate 62 g/ha, Preemergence): 5 | Plant response rating, Bedstraw ([9]; Rate 125 g/ha, Postemergence): 9 | Bedstraw plant response rating ([9]; Rate 125 g/ha, Preemergence): 8 | Plant response rating, Bedstraw ([9]; Rate 250 g/ha, Postemergence): 10 | Plant response rating, Bedstraw ([9]; Rate 250 g/ha, Preemergence): 9 | Plant response rating, Bedstraw ([9]; Rate 500 g/ha, Postemergence): 10 | Plant response rating, Bedstraw ([9]; Rate 500 g/ha, Preemergence): 9 | Plant response rating, Wheat ([10]; Rate 62 g/ha, Postemergence): 2 | Wheat plant response rating ([10]; Rate 62 g/ha, Preemergence): 0 | Plant response rating, Wheat ([10]; Rate 125 g/ha, Postemergence): 2 | Wheat plant response rating ([10]; Rate 125 g/ha, Preemergence): 1 | Plant response rating, Wheat ([10]; Rate 250 g/ha, Postemergence): 3 | Plant response rating, Wheat ([10]; Rate 250 g/ha, Preemergence): 1 | Plant response rating, Wheat ([10]; Rate 500 g/ha, Postemergence): 3 | Plant response rating, Wheat ([10]; Rate 500 g/ha, Preemergence): 3 | Plant response rating, Crabgrass ([11]; Rate 62 g/ha, Postemergence): 2 | Crabgrass plant response rating ([11]; Rate 62 g/ha, Preemergence): 7 | Plant response rating, Crabgrass ([11]; Rate 125 g/ha, Postemergence): 4 | Crabgrass plant response rating ([11]; Rate 125 g/ha, Preemergence): 7 | Plant response rating, Crabgrass ([11]; Rate 250 g/ha, Postemergence): 6 | Plant response rating, Crabgrass ([11]; Rate 250 g/ha, Preemergence): 9 | Plant response rating, Crabgrass ([11]; Rate 500 g/ha, Postemergence): 7 | Plant response rating, Crabgrass ([11]; Rate 500 g/ha, Preemergence): 10 | Plant response rating, Nutsedge ([12]; Rate 62 g/ha, Postemergence): 1 | Plant response rating, Nutsedge ([12]; Rate 125 g/ha, Postemergence): 1 | Nutsedge plant response rating ([12]; Rate 125 g/ha, Preemergence): 0 | Plant response rating, Nutsedge ([12]; Rate 250 g/ha, Postemergence): 1 | Plant response rating, Nutsedge ([12]; Rate 250 g/ha, Preemergence): 0 | Plant response rating, Nutsedge ([12]; Rate 500 g/ha, Preemergence): 1
